pIC50: −log10 of the molar value.
What was measured:
ALK5 [1] = tested on: ALK5; parameters: method as in PMID 16271073; conditions: cited from earlier work
ALK5 [2] = target: T1, ALK5 (Homo sapiens, UniProt P36897); test: Radiometric 33PanQinase ALK5 kinase assay (ProQinase), casein substrate; format: biochemical; conditions: for remaining activity at 10 µM: compound at 10 μM, in duplicate, read-out: Residual Activity (%) ALK5; for Selectivity Index: IC50 of p38α/IC50 of ALK5; for ALK5 inhibitory activity in words: at up to 5.0 μM for 18a–d, 'at up to 2.26 μM' for pyrimidin-4-yl compounds
T1 sequence (P36897 205-495 limits assumed): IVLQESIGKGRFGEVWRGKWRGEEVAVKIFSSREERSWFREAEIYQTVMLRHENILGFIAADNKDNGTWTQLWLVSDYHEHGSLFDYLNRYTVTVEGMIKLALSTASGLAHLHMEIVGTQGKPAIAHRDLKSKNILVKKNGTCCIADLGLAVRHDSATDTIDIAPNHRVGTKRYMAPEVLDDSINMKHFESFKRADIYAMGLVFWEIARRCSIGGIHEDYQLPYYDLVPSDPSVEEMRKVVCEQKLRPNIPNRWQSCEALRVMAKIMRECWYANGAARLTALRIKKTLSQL
Method: To investigate whether compounds 14a–d, 15a–d, 16a–d, 17a–d, 18a–d, and 19a–d would inhibit ALK5, a kinase assay for preliminary screening was performed using the purified human ALK5 kinase domain produced in Sf9 insect cells and compounds at 10 μM.
(§1) All kinase experiments were completed by the ProQinase (Freiburg, Germany). All protein kinases were expressed in Sf9 insect cells or in E. coli as recombinant GST-fusion proteins or His-tagged proteins, either as full-length or enzymatically active fragments. All kinases were obtained from human cDNAs and purified by either GSH-affinity chromatography or immobilized metal. The purity of the protein kinases was examined by SDS-PAGE/Coomassie staining. The identity was checked by mass spectroscopy.
(§2) A radiometric protein kinase assay (^33PanQinase® activity assay) was used for measuring the kinase activity of the two protein kinases. All kinase assays were performed in 96-well FlashPlates^TM from PerkinElmer (Boston, MA, USA) in 50 μL reaction volumes. The reaction cocktail was pipetted in four steps in the following order: 20 μL of assay buffer (standard buffer), 5 μL of ATP solution (in H2O), 5 μL of test compound (in 10% DMSO), 20 μL enzyme/substrate mix.
(§3) The assay for all protein kinases contained 70 mM HEPES-NaOH pH 7.5, 3 mM MgCl2, 3 mM MnCl2, 3 μM Na-orthovanadate, 1.2 mM DTT, 50 μg/mL PEG20000, ATP, [γ-^33P]-ATP, protein kinase, and substrate.
(§4) The reaction cocktail was incubated at 30 °C for 60 min. The reaction was halted with 50 μL of 2% (v/v) H3PO4, plates were aspirated and washed two times with 200 μL 0.9% (w/v) NaCl. Incorporation of ^33Pi was established with a microplate scintillation counter (PerkinElmer, Boston, MA, USA). All assays were performed with a BeckmanCoulter/SAGIAN™ Core System.

p38α MAP kinase = p38α MAP kinase (Homo sapiens, UniProt Q16539); test: Radiometric 33PanQinase p38α MAP kinase assay (ProQinase), ATF2 substrate; format: biochemical; conditions: for remaining activity at 10 µM: compound at 10 μM, in duplicate, read-out: Residual Activity (%) p38α
Source text: We selected p38α MAP kinase to survey the selectivity profile of this series of compounds because its kinase domain is among the most homologous to that of ALK5 [27].
as §1, §2, §3, §4

Sequence of p38α MAP kinase (Q16539 whole entry, the tested form may be a part): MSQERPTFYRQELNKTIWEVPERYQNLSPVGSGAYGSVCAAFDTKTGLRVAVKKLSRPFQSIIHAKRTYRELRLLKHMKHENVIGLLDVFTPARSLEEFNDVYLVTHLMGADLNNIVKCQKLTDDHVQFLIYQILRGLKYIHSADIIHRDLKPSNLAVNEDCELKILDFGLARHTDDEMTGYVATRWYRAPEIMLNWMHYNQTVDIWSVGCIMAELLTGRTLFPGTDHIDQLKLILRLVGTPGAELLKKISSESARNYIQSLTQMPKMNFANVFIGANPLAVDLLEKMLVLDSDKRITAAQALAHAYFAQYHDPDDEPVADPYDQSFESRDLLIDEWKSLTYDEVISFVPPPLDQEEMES

Row | melting point [°C] | remaining activity at 10 µM (ALK5 [2]) [%] | remaining activity at 10 µM (p38α MAP kinase) [%] | IC50 (ALK5 [2]) [µM] | Selectivity Index (ALK5 [2]) | IC50 (p38α MAP kinase) [µM] | ALK5 inhibitory activity in words (ALK5 [2]) | Structure (SMILES) | pIC50 (ALK5 [1])
1 | – | – | – | – | – | – | – | Cc1cccc(-c2nn(C(=S)Nc3ccccc3)cc2-c2ccnc3ccccc23)n1 [Compound 6, A-83-01] | 7.92
2 | 222.3 to 223 | 3 | 108 | – | – | – | – | Cc1csc(-c2nn(CC(=O)Nc3cccc(C#N)c3)cc2-c2ccc3nccnc3c2)n1 [Compound 16d, N-(3-Cyanophenyl)-2-(3-(4-methylthiazol-2-yl)-4-(quinoxalin-6-yl)-1H-pyrazol-1-yl)acetamide] | –
3 | 182 to 184 | 29 | 119 | 5.75 | >2 | > 10 | – | CN(C)c1cccc(-c2nn(CC(=S)Nc3ccccc3)cc2-c2ccc3nccnc3c2)n1 [Compound 18a, 2-(3-(6-(Dimethylamino)pyridin-2-yl)-4-(quinoxalin-6-yl)-1H-pyrazol-1-yl)-N-phenylethanethioamide] | –
4 | 88.3 to 91.2 | 70 | 125 | > 10 | – | > 10 | – | CN(C)c1cccc(-c2nn(CC(=S)Nc3ccccc3F)cc2-c2ccc3nccnc3c2)n1 [Compound 18b, 2-(3-(6-(Dimethylamino)pyridin-2-yl)-4-(quinoxalin-6-yl)-1H-pyrazol-1-yl)-N-(2-fluorophenyl)ethanethioamide] | –
5 | 68.5 to 70.2 | 29 | 165 | 5 | >2 | > 10 | – | CN(C)c1cccc(-c2nn(CC(=S)Nc3cccc(F)c3)cc2-c2ccc3nccnc3c2)n1 [Compound 18c, 2-(3-(6-(Dimethylamino)pyridin-2-yl)-4-(quinoxalin-6-yl)-1H-pyrazol-1-yl)-N-(3-fluorophenyl)ethanethioamide] | –
6 | 108.5 to 110 | 54 | 119 | > 10 | – | > 10 | – | CN(C)c1cccc(-c2nn(CC(=S)Nc3cccc(C#N)c3)cc2-c2ccc3nccnc3c2)n1 [Compound 18d, N-(3-Cyanophenyl)-2-(3-(6-(dimethylamino)pyridin-2-yl)-4-(quinoxalin-6-yl)-1H-pyrazol-1-yl)ethanethioamide] | –
7 | 170.3 to 172.5 | – | – | 5.03 | >2 | > 10 | no significant ALK5 inhibition activity | O=C(Cn1cc(-c2ccc3nccnc3c2)c(-c2ccncn2)n1)Nc1ccccc1 [Compound 25a, N-Phenyl-2-(3-(pyrimidin-4-yl)-4-(quinoxalin-6-yl)-1H-pyrazol-1-yl)acetamide] | –
8 | 192.3 to 194.5 | – | – | 3.66 | >3 | > 10 | no significant ALK5 inhibition activity | O=C(Cn1cc(-c2ccc3nccnc3c2)c(-c2ccncn2)n1)Nc1ccccc1F [Compound 25b, N-(2-Fluorophenyl)-2-(3-(pyrimidin-4-yl)-4-(quinoxalin-6-yl)-1H-pyrazol-1-yl)acetamide] | –
9 | 178.3 to 180.5 | – | – | 4.12 | >2 | > 10 | no significant ALK5 inhibition activity | N#Cc1cccc(NC(=O)Cn2cc(-c3ccc4nccnc4c3)c(-c3ccncn3)n2)c1 [Compound 25d, N-(3-Cyanophenyl)-2-(3-(pyrimidin-4-yl)-4-(quinoxalin-6-yl)-1H-pyrazol-1-yl)acetamide] | –

Source: publication PMC6320941, “Synthesis and Evaluation of 3-Substituted-4-(quinoxalin-6-yl) Pyrazoles as TGF-β Type I Receptor Kinase Inhibitors” (Molecules, 2018)
